Measurements reported in the kinase profiling compilation of Christmann-Franck et al. (2016).

How the values were obtained:
Test in all cases: radiometric filter-binding kinase assay, Kinase HotSpot
Conditions in all cases: compound 0.5 µM; ATP 10 µM
PRKD1 (human) = PRKD1 (human) (UniProt Q15139)
IKBKE (human) = IKBKE (human) (UniProt Q14164)
MAP2K1 (human) = MAP2K1 (human) (UniProt Q02750)
TGFBR2 (human) = TGFBR2 (human) (UniProt P37173)
EPHA5 (human) = EPHA5 (human) (UniProt P54756)
MAP3K14 (human) = MAP3K14 (human) (UniProt Q99558)
BLK (human) = BLK (human) (UniProt P51451)
BRSK2 (human) = BRSK2 (human) (UniProt Q8IWQ3)
DAPK2 (human) = DAPK2 (human) (UniProt Q9UIK4)
MAP4K4 (human) = MAP4K4 (human) (UniProt O95819)
HIPK4 (human) = HIPK4 (human) (UniProt Q8NE63)
WNK2 (human) = WNK2 (human) (UniProt Q9Y3S1)
MUSK (human) = MUSK (human) (UniProt O15146)
MERTK (human) = MERTK (human) (UniProt Q12866)
MINK1 (human) = MINK1 (human) (UniProt Q8N4C8)
CLK4 (human) = CLK4 (human) (UniProt Q9HAZ1)
FRK (human) = FRK (human) (UniProt P42685)
CDK4 CCND1 (human) = CDK4 CCND1 (human) (UniProt P24385+P11802)
PDGFRA (human) = PDGFRA (human) (UniProt P16234)
CSF1R (human) = CSF1R (human) (UniProt P07333)
EPHB4 (human) = EPHB4 (human) (UniProt P54760)
NEK6 (human) = NEK6 (human) (UniProt Q9HC98)
SRMS (human) = SRMS (human) (UniProt Q9H3Y6)
MAPK9 (human) = MAPK9 (human) (UniProt P45984)
DYRK1A (human) = DYRK1A (human) (UniProt Q13627)
PIM2 (human) = PIM2 (human) (UniProt Q9P1W9)
CSNK2A2 (human) = CSNK2A2 (human) (UniProt P19784)
NEK9 (human) = NEK9 (human) (UniProt Q8TD19)
PASK (human) = PASK (human) (UniProt Q96RG2)
SRPK2 (human) = SRPK2 (human) (UniProt P78362)
PAK1 (human) = PAK1 (human) (UniProt Q13153)
CSNK1D (human) = CSNK1D (human) (UniProt P48730)
RPS6KA5 KD2 (human) = RPS6KA5 KD2 (human) (UniProt O75582)
GRK4 (human) = GRK4 (human) (UniProt P32298)
MAPKAPK5 (human) = MAPKAPK5 (human) (UniProt Q8IW41)
MARK2 (human) = MARK2 (human) (UniProt Q7KZI7)
ERBB2 (human) = ERBB2 (human) (UniProt P04626)
ULK2 (human) = ULK2 (human) (UniProt Q8IYT8)
DDR2 (human) = DDR2 (human) (UniProt Q16832)
TSSK2 (human) = TSSK2 (human) (UniProt Q96PF2)
PIM1 (human) = PIM1 (human) (UniProt P11309)
CHEK2 (human) = CHEK2 (human) (UniProt O96017)

Chain of BLK (human) (P51451 whole entry, looked up): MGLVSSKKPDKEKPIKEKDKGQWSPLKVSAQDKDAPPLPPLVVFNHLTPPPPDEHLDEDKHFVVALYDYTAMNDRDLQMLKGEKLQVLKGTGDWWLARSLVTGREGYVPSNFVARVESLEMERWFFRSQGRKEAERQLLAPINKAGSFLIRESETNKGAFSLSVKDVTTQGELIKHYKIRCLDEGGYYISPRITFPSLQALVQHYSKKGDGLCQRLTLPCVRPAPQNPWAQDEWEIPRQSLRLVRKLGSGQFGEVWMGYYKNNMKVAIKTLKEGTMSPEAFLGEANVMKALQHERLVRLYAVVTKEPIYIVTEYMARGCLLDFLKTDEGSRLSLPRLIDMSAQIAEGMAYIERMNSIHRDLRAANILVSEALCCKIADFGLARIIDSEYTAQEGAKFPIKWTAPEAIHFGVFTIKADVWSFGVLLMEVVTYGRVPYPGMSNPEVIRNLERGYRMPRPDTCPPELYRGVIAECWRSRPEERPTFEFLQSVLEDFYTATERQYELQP
Chain of CSNK1D (human) (P48730 whole entry, looked up): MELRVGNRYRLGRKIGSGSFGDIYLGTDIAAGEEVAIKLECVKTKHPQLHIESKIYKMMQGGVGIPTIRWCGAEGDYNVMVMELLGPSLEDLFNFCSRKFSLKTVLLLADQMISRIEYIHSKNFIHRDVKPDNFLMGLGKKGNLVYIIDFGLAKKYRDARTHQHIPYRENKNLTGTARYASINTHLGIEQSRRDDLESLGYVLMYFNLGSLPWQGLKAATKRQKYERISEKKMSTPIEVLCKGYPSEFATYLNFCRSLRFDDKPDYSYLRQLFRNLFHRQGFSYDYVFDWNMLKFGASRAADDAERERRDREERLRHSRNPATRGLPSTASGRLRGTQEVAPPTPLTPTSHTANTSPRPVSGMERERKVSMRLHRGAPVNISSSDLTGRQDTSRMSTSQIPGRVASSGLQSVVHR
Chain of NEK9 (human) (Q8TD19 whole entry, looked up): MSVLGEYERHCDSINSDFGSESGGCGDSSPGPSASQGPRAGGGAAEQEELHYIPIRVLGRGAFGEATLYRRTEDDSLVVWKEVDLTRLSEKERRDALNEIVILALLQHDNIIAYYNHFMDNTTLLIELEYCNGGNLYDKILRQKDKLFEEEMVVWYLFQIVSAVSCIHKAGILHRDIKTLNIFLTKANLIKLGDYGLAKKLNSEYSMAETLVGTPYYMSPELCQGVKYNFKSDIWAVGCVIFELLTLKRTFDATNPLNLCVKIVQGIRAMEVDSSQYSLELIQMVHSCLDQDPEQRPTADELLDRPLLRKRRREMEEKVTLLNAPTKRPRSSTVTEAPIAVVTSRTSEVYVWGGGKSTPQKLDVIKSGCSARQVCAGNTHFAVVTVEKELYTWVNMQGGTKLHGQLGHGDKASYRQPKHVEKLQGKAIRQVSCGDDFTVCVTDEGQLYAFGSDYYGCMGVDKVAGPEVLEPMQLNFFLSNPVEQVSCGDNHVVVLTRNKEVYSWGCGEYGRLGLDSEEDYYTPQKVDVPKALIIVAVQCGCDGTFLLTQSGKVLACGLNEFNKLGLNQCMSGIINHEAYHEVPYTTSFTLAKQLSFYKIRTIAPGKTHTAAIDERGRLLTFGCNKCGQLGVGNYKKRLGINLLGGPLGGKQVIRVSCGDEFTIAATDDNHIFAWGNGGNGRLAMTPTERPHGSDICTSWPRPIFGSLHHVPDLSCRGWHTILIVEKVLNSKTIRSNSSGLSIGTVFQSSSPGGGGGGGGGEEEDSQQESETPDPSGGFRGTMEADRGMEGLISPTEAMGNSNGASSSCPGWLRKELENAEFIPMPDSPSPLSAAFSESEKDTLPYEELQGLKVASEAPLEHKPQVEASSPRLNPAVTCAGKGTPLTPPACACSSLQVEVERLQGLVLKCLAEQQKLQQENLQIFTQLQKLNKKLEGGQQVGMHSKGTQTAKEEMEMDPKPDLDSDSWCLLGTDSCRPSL
Chain of MAP4K4 (human) (O95819 whole entry, looked up): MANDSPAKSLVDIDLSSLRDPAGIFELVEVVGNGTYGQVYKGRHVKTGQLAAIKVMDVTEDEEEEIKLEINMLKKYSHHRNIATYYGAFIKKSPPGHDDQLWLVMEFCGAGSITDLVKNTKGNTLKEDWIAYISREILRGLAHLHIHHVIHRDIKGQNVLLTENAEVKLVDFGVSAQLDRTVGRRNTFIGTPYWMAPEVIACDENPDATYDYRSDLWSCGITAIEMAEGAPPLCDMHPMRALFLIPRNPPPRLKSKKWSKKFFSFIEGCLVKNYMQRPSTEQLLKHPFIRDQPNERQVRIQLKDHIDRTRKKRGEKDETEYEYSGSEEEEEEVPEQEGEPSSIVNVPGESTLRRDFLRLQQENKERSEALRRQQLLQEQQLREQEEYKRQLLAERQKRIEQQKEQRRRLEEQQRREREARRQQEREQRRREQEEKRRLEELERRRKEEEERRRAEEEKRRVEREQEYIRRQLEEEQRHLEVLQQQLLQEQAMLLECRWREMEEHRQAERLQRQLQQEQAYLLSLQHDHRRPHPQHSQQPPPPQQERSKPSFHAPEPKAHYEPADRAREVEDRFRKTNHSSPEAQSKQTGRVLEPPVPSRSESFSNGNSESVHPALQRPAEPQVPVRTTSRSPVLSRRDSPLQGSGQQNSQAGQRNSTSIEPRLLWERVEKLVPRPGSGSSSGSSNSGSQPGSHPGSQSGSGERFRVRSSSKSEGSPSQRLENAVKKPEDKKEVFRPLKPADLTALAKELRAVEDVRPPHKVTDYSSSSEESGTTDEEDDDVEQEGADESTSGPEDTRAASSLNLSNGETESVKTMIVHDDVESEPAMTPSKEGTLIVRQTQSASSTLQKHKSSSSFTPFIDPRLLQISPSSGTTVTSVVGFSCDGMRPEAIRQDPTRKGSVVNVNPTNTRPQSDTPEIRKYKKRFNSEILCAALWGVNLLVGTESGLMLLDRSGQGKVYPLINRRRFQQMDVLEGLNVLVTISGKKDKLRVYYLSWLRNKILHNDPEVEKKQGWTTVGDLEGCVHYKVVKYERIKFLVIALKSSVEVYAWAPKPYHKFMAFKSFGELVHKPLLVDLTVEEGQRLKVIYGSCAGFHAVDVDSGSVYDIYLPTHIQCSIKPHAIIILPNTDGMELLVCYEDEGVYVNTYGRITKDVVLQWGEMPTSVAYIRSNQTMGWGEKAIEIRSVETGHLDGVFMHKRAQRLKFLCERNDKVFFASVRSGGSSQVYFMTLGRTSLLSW
Chain of MARK2 (human) (Q7KZI7 whole entry, looked up): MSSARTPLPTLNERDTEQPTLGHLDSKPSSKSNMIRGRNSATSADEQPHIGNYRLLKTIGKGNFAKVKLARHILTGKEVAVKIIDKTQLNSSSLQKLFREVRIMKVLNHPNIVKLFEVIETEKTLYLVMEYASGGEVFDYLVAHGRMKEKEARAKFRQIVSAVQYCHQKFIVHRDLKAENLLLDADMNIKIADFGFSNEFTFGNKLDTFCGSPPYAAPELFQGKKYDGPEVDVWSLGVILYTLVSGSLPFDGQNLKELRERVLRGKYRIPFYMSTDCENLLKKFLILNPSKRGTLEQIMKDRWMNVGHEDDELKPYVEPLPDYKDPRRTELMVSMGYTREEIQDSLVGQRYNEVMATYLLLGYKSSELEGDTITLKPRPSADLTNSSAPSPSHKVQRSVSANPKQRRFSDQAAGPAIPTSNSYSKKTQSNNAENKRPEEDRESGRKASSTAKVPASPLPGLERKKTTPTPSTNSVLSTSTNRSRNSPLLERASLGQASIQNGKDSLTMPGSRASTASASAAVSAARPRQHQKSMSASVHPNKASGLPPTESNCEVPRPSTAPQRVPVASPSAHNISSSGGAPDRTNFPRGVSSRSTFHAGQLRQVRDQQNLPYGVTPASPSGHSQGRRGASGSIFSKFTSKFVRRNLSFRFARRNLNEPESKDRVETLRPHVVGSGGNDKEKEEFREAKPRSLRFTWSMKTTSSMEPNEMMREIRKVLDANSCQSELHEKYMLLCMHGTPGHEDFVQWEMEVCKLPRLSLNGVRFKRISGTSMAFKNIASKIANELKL
Chain of CDK4 CCND1 (human) (P11802 whole entry, looked up): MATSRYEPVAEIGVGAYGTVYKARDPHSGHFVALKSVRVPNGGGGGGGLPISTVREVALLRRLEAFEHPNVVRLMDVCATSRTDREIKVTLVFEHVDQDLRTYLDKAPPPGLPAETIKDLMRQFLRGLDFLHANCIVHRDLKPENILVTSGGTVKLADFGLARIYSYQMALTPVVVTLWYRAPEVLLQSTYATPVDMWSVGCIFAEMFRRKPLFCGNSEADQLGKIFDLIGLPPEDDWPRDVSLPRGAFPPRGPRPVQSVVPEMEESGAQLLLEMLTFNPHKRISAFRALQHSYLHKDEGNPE
Chain of CDK4 CCND1 (human) (P24385 whole entry, looked up): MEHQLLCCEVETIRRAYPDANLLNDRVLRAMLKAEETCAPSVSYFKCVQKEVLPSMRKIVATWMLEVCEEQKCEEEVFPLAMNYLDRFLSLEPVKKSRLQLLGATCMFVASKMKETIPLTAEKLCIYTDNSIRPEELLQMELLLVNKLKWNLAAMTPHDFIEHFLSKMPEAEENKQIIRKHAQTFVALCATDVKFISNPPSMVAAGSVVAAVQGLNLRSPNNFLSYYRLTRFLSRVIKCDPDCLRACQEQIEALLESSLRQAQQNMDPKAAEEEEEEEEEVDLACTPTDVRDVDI
Chain of CSNK2A2 (human) (P19784 whole entry, looked up): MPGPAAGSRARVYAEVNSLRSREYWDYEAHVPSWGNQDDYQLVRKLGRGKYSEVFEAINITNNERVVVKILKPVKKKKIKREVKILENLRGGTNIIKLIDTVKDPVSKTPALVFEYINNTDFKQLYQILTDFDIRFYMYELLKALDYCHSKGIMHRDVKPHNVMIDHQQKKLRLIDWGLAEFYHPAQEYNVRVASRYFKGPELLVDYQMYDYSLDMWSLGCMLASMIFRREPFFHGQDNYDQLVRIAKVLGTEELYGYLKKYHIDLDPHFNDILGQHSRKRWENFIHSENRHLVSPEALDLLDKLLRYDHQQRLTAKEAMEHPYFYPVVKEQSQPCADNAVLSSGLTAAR

`COc1ccc(Cl)cc1NC(=O)Nc1cc(C)nc2ccccc12` was tested, and the residual activity (PRKD1 (human)) was 96.6%, the residual activity (IKBKE (human)) was 107% and the residual activity (MAP2K1 (human)) was 101%. The residual activity (TGFBR2 (human)) was 111%, the residual activity (EPHA5 (human)) was 123% and the residual activity (MAP3K14 (human)) was 84.9%. For the same molecule, the residual activity (BLK (human)) was 99.8%, the residual activity (BRSK2 (human)) was 95.2% and the residual activity (DAPK2 (human)) was 99.1%. It also gave a residual activity (MAP4K4 (human)) of 84.7%, a residual activity (HIPK4 (human)) of 109% and a residual activity (WNK2 (human)) of 104%. The residual activity (MUSK (human)) was 93.3%, the residual activity (MERTK (human)) was 93.3% and the residual activity (MINK1 (human)) was 88.7%. For the same molecule, the residual activity (CLK4 (human)) was 108%, the residual activity (FRK (human)) was 98.4% and the residual activity (CDK4 CCND1 (human)) was 98.8%. It also gave a residual activity (PDGFRA (human)) of 88.5%, a residual activity (CSF1R (human)) of 94.8% and a residual activity (EPHB4 (human)) of 93.7%. The residual activity (NEK6 (human)) was 97.8%, the residual activity (SRMS (human)) was 97.6% and the residual activity (MAPK9 (human)) was 105%. For the same molecule, the residual activity (DYRK1A (human)) was 103%, the residual activity (PIM2 (human)) was 99.8% and the residual activity (CSNK2A2 (human)) was 96%. For the same molecule, the residual activity (NEK9 (human)) was 104%, the residual activity (PASK (human)) was 97.6% and the residual activity (SRPK2 (human)) was 94.9%. It also gave a residual activity (PAK1 (human)) of 94.8%, a residual activity (CSNK1D (human)) of 98.7% and a residual activity (RPS6KA5 KD2 (human)) of 88.4%. It also gave a residual activity (GRK4 (human)) of 105%, a residual activity (MAPKAPK5 (human)) of 89.1% and a residual activity (MARK2 (human)) of 99.5%. The residual activity (ERBB2 (human)) was 99.7%, the residual activity (ULK2 (human)) was 106% and the residual activity (DDR2 (human)) was 97.7%. The residual activity (TSSK2 (human)) was 94%, the residual activity (PIM1 (human)) was 98.1% and the residual activity (CHEK2 (human)) was 101%.
